Values of other authors, collected in patent US20230248696A1, “LENALIDOMIDE PRODRUGS, POLYMERIC CONJUGATES, AND FORMULATIONS THEREOF, AND THEIR USES FOR THE TREATMENT OF MULTIPLE MYELOMA” (DYNAMIC BIOLOGICS INC., priority 2019, published 2023).

Columns and labels:
[1] = in vitro, versus racemic lenalidomide
TNF-alpha = details: in vitro, versus racemic lenalidomide
IL-2 = details: in vitro, versus racemic lenalidomide
[2] = tested on: IL-10, IL-2 and Interferon gamma (IFN-γ); details: peripheral blood mononuclear cells
[3] = tested on: TNF-α, IL-1β, IL-6 and IL-12
[4] = not given; remark: listed apart in the source
[5] = high solubility and low permeability
KG-1 cells = details: cell line without chromosome 5 deletions

SMILES | potency for anti-proliferative activities [1] | potency for TNF-alpha inhibition (TNF-alpha) | potency for IL-2 induction (increased production) (IL-2) | inhibiting growth of Namalwa cells (Namalwa cells) | production of IL-10, IL-2 and IFN-γ [2] | inhibition of COX-1 expression (COX-1) | patients discontinuing maintenance therapy because of neurotoxicity (maintenance therapy) | patients with dyspepsia (multiple myeloma patients treated with lenalidomide) | inhibition of pro-inflammatory cytokines TNF-α, IL-1β, IL-6 and IL-12 [3] | reduction of maximal plasma concentration (Cmax) by co-administration with food ([4]; co-administration with food) | oral lenalidomide dose absorbed ([4]; oral, fasting conditions) | reduction of area under the concentration-time curve (AUC) by food ([4]; oral, with food) | reduction of maximum concentration (Cmax) by food ([4]; oral, with food) | BCS class [5] | inhibiting growth of KG-1 cells (KG-1 cells) | inhibition of COX-2 expression (cyclooxygenase-2 (COX-2))
[2H]C1([2H])C(=O)NC(=O)[C@@]([2H])(N2Cc3c(N)cccc3C2=O)C1([2H])[2H] [CTP-221] | greater potency compared to racemic lenalidomide | greater potency compared to racemic lenalidomide | greater potency compared to racemic lenalidomide |  |  |  |  |  |  |  |  |  |  |  |  | 
Nc1cccc2c1CN(C1CCC(=O)NC1=O)C2=O (racemic) [lenalidomide, 3-(4′ aminoisoindoline-1′-one)-1-piperidine-2,6-dione] |  |  |  | effective | increases production | not | 75% | 20% | potent inhibitor | 36% | > 90% | 20% | 50% | 3 | much less effective | inhibits
